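Method: 48-hour compound exposure of cells in 96-well plates, five concentrations, linear interpolation of endpoints. GI50 marks 50% less growth.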 Activity calls are given as the source filed them. Cut-off read from the data, not from the text of the source: active = GI50 up to about 1.1 µM and inactive = higher.
Tests used:
Experiment in all cases: inhibition of tumour cell growth, NCI panel, 48 h
ACHN = tested on: ACHN
BT-549 = tested on: BT-549
COLO 205 = tested on: COLO 205
HOP-62 = tested on: HOP-62
Hs-578T = tested on: Hs-578T
IGROV-1 = tested on: IGROV-1
LOX IMVI = tested on: LOX IMVI
MCF7 = tested on: MCF7
MDA-N = tested on: MDA-N
MOLT-4 = tested on: MOLT-4
NCI-H226 = tested on: NCI-H226
NCI-H23 = tested on: NCI-H23
OVCAR-5 = tested on: OVCAR-5
OVCAR-8 = tested on: OVCAR-8
RXF 393 = tested on: RXF 393
SF-268 = tested on: SF-268
SK-MEL-5 = tested on: SK-MEL-5
SN12C = tested on: SN12C
TK-10 = tested on: TK-10
U-251 = tested on: U-251

Measured: GI50

CC1=C2C(=C[C@@](C)(CO)[C@@H]2O)C(=O)[C@](C)(O)C12CC2 [ILLUDIN]
active: ACHN 8.49 nM | BT-549 6.58 nM | COLO 205 7.71 nM | HOP-62 7.05 nM | Hs-578T 16.9 nM | IGROV-1 15.5 nM | LOX IMVI 3.13 nM | MCF7 2.84 nM | MDA-N < 11.7 nM | MOLT-4 7.31 nM | NCI-H226 23.1 nM | NCI-H23 5.2 nM | OVCAR-5 10.6 nM | OVCAR-8 13.3 nM | RXF 393 6.64 nM | SF-268 2.93 nM | SK-MEL-5 5.96 nM | SN12C 19 nM | TK-10 22.3 nM | U-251 2.13 nM

Source: ChEMBL document CHEMBL1201862, “PubChem BioAssay data set” (2004)
